Results as given in patent US10258620B2, “Crystalline form of 5-amino-2,3-dihydrophthalazine-1,4-dione sodium salt, pharmaceutical preparations containing the same and method for the production of said form” (METRIOPHARM AG, priority 2014, dated 2019).
Where a name gives a salt, the structure may show the parent alone. Read-outs that look alike come from different tables or passages of the source.

Legend:
[1] = FIG. 8, increasing proportion of H2O
[2] = determination repeated 10 times
Protocol: After drying all forms produced were vortexed for 1 minute to let bigger agglomerates carefully disaggregate.
A sample of each of the respective solids to be determined was filled into a plastic funnel for solids (diameter of the outlet: 11 mm) with closable outlet which was mounted in a height of 20 mm above the collecting vessel. The funnel used was always filled half-full, thereby ensuring that there was always more sample material provided than necessary for filling the collecting vessel. After opening the outlet the respective solids trickled into the collecting vessel until it was filled up above the upper rim. The supernatant of the respective solids was removed with a spatula and the filled collecting vessel was weighed out with a high-resolution balance. The determination for each form was repeated 10 times and the mean value was calculated (Table 3).

[3] = from WO2011/107295A1; cited from earlier work
[4] = tested on: IL-6; settings: PMA-differentiated HL60 cells, pre-stimulation 1 h with 1 mmol/l, then 100 ng/mL LPS 24 h, 3 measurements, LPS control 42.81
Protocol: (§1) For the differentiation to macrophages HL60 cells were treated with phorbol 12-myristate 13-acetate (PMA) in advance. […] The secretion of TNF alpha and IL-6 was determined in the cell supernatant using ELISA testing over 3 measurements, respectively. Table 4 as well as FIGS. 7a and 7b show the respective mean value m and the standard deviation s (GraphPad Prism 5).

[5] = tested on: TNF alpha; settings: PMA-differentiated HL60 cells, pre-stimulation 1 h with 1 mmol/l, then 100 ng/mL LPS 24 h, 3 measurements, LPS control 30.08
Protocol: as §1

[6] = physchem
Protocol: Determination of the maximum solubility of crystalline form III in water at RT was carried out with UV-Vis spectroscopy in an Agilent Cary 300 UV-Vis spectrometer. This process is based on a linear correlation between the concentration of a dissolved solid and the calculated absorption at a particular wavelength (Beer-Lambert law).
A stock solution of 0.502 g of form III in 2 mL H2O (demineralized) was produced. For the generating a 3-point calibration curve three solutions were produced after appropriate dilution thereof with concentrations of 0.5041 mmol/l, 0.2521 mmol/l and 0.1260 mmol/l, and their respective absorption at 347 nm was determined. […] Further, a supersaturated solution of 0.531 g of form III in 2 mL H2O (demineralized) was produced to determine the maximum concentration. 100 μL of the solution were 2000-fold diluted and the absorption at 347 nm was determined as well.

[7] = methanol or ethanol
Description: In polymorphs of crystalline solids phase transitions occur depending on the thermodynamic stability of the individual forms. […] Different transformation processes are known. […] In this respect so-called slurry experiments can provide information on the thermodynamic stability of polymorphs of a solid.
To compare the stability under the influence of solvents 50:50 (wt %) solid phase mixtures were produced of form III according to the invention and form I as well as of form III according to the invention and form II.
In each case 0.05 g of the respective solid phase mixture were suspended in 5 mL 2-propanol, methanol or ethanol, respectively. The mixture of form III and form I was stirred at RT for 3 days. The mixture of form III and form II was stirred at RT for 24 h. The suspensions were filtered under vacuum utilizing a Büchner funnel. The remaining crystalline solid was completely dried at RT. X-ray powder diffraction patterns of the resulting crystalline solids were recorded with a Bragg-Brentano diffractometer (STOE STADI P) provided with a DECTRIS MythenlK detector using mono-chromatized (Ge111-monochromator) copper emissions Cu K(α1) (wave length λ=1.54187 Å).

[8] = 30-600° C., synthetic air, heating rate 10° C./min
Protocol: The determination was carried out by means of simultaneous thermogravimetry (differential scanning calorimetry) at a Linseis L81-077 coupled with mass spectroscopy measurements with a Netzsch STA 449 C (thermobalance) with MS and FTIR coupling over 30-600° C. under synthetic air (4 N2:1 O2) and a heating rate of 10° C./min. The data were analyzed with the company software Proteus.

[9] = water, thermodynamic from solid

## Nc1cccc2c(=O)[nH][nH]c(=O)c12 [5-amino-2,3-dihydrophthalazine-1,4-dione sodium salt]
[1]
  solubility in a DMSO-H2O mixture with increasing proportion of H2O: increases continuously

## Nc1cccc2c(=O)[nH][nH]c(=O)c12 [Dihydrate, 5-amino-2,3-dihydrophthalazine-1,4-dione sodium salt dihydrate]
[2]; sodium salt dihydrate
  Bulk densities (mean ± standard deviation): 72.3 ± 4.1 kg/m^3
[3]
  solid phase transition temperature: 85 °C
[4]; sodium salt dihydrate
  IL-6 secretion, mean m: 40.93 pg/mL
[5]; sodium salt dihydrate
  TNF-alpha secretion, mean m: 26.87 pg/mL

## Nc1cccc2c(=O)[nH][nH]c(=O)c12 [Form III, 5-amino-2,3-dihydrophthalazine-1,4-dione sodium salt]
[2]; sodium salt
  Bulk densities (mean ± standard deviation): 203.5 ± 6.7 kg/m^3
[6]; RT, forms I and II cf. WO2011/107295A1
  solubility in water compared with forms I and II: less soluble than forms I and II
[6]; [9]
  solubility: 145 mg/mL
  solubility thermodynamic: 730 mM
[7]; 50:50 wt % mixture of form I and form III in 2-propanol, stirred at RT for 3 days
  thermodynamic stability versus form I: thermodynamically more stable polymorph
[7]; 50:50 wt % mixture of form II and form III in 2-propanol, stirred at RT for 24 h
  thermodynamic stability versus form II: thermodynamically more stable polymorph
[4]; sodium salt
  IL-6 secretion, mean m: 34.86 pg/mL
[5]; sodium salt
  TNF-alpha secretion, mean m: 22.15 pg/mL
[8]
  temperature at which decomposition starts: 391.7 °C

## Nc1cccc2c(=O)[nH][nH]c(=O)c12 [Form I, 5-amino-2,3-dihydrophthalazine-1,4-dione sodium salt]
[2]; sodium salt
  Bulk densities (mean ± standard deviation): 201.9 ± 3.9 kg/m^3
[4]; sodium salt
  IL-6 secretion, mean m: 41.15 pg/mL
[5]; sodium salt
  TNF-alpha secretion, mean m: 25.28 pg/mL

## Nc1cccc2c(=O)[nH][nH]c(=O)c12 [Form II, 5-amino-2,3-dihydrophthalazine-1,4-dione sodium salt]
[2]; sodium salt
  Bulk densities (mean ± standard deviation): 108.6 ± 3.0 kg/m^3
[4]; sodium salt
  IL-6 secretion, mean m: 36.11 pg/mL
[5]; sodium salt
  TNF-alpha secretion, mean m: 22.16 pg/mL
